{
  "source": "patent US12404279B2",
  "about": "“Deubiquitinase inhibitors and methods of use thereof” (Molecure S.A., priority 2021, dated 2025)",
  "molecular_target": "full-length USP7 (Homo sapiens (Human), UniProt Q93009)",
  "sequence (Q93009 whole entry)": "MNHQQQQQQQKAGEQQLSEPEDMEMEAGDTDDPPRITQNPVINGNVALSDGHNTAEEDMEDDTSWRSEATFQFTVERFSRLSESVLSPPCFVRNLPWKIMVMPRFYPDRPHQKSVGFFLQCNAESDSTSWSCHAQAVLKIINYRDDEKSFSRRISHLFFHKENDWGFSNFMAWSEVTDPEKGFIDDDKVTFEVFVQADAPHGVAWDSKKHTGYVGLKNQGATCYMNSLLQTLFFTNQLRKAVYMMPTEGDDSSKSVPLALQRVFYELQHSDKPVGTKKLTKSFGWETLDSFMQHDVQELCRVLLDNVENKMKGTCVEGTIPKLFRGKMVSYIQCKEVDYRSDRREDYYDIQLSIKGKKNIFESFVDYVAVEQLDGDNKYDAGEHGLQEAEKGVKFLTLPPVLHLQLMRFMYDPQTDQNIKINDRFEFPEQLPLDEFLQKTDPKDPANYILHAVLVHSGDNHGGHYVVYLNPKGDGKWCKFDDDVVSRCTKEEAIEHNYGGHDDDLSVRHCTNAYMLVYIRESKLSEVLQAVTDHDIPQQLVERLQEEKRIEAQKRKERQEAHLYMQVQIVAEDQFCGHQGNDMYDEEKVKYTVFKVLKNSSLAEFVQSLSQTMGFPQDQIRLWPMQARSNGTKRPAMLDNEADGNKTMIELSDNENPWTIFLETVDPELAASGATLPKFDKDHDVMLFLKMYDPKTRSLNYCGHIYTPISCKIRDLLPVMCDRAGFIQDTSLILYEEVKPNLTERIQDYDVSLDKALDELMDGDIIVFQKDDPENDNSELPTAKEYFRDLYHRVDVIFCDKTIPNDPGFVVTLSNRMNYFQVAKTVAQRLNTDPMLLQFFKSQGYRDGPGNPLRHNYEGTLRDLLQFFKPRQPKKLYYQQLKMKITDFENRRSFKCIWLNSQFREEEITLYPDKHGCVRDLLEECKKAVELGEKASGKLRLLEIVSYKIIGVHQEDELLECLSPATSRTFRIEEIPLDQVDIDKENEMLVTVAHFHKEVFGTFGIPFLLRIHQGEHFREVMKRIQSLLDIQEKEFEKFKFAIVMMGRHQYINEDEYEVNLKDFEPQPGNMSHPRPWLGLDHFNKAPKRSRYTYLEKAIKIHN",
  "experiment": "Enzymatic assay to determine IC50 of USP7 inhibitors (Ubiquitin-Rhodamine 110 cleavage)",
  "type": "biochemical",
  "conditions": "for inhibition at 1 µM: read-out: percent value of inhibition of USP7 activity; for pIC50: 0.5 nM USP7, 0.5 μM Ubiquitin-Rhodamine 110, 45 min at 37° C.",
  "in_short": "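Enzyme: 0.5 nM full-length USP7 in HEPES pH 7.5 buffer with NaCl, DTT, BSA and Tween20, given 15 min at room temperature with DTT before compounds were added.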",
  "note": "pIC50: −log10 of the molar value. Where a name gives a salt, the structure may show the parent alone.",
  "data": [
    {"smiles": "Cc1ccnc(CC2CNCCO2)c1-c1ccnc2cc(CN3C(=O)C4C(C3=O)C4(C)C)sc12", "note": "(stereo not drawn) [Example 93, 6,6-dimethyl-3-((7-(4-methyl-2-(morpholin-2-ylmethyl)pyridin-3-yl)thieno[3,2-b]pyridin-2-yl)methyl)-3-azabicyclo[3.1.0]hexane-2,4-dione 2,2,2-trifluoroacetate]", "values": [
      {"measurement": "inhibition at 1 µM", "value": "< 20", "unit": "%"}
    ]},
    {"smiles": "Cc1cc(C(F)(F)F)nc(-c2ccnc3cc(CN4C(=O)C5C(C4=O)C5(C)C)sc23)c1C[C@H]1CNCCO1", "note": "(stereo partly drawn) [Example 95, 6,6-dimethyl-3-((7-(4-methyl-3-(((S)-morpholin-2-yl)methyl)-6-(trifluoromethyl)pyridin-2-yl)thieno[3,2-b]pyridin-2-yl)methyl)-3-azabicyclo[3.1.0]hexane-2,4-dione dihydrochloride]", "values": [
      {"measurement": "pIC50", "value": "> 6.30"}
    ]},
    {"smiles": "Cc1cc(C(F)(F)F)nc(-c2ccnc3cc(CN4C(=O)C5C(C4=O)C5(C)C)sc23)c1C[C@@H]1CNCCO1", "note": "(stereo partly drawn) [Example 96, 6,6-dimethyl-3-((7-(4-methyl-3-(((R)-morpholin-2-yl)methyl)-6-(trifluoromethyl)pyridin-2-yl)thieno[3,2-b]pyridin-2-yl)methyl)-3-azabicyclo[3.1.0]hexane-2,4-dione dihydrochloride]", "values": [
      {"measurement": "pIC50", "value": "> 6.30"}
    ]},
    {"smiles": "Cc1cc(C(F)(F)F)nc(-c2ccnc3cc(CN4C(=O)C5C(C4=O)C5(C)C)sc23)c1C[C@H]1CN(C)CCO1", "note": "(stereo partly drawn) [Example 97, 6,6-dimethyl-3-((7-(4-methyl-3-(((S)-4-methylmorpholin-2-yl)methyl)-6-(trifluoromethyl)pyridin-2-yl)thieno[3,2-b]pyridin-2-yl)methyl)-3-azabicyclo[3.1.0]hexane-2,4-dione dihydrochloride]", "values": [
      {"measurement": "pIC50", "value": "5.00 to 6.00"}
    ]},
    {"smiles": "Cc1cc(C(F)(F)F)nc(-c2ccnc3cc(CN4C(=O)C5C(C4=O)C5(C)C)sc23)c1C[C@@H]1CN(C)CCO1", "note": "(stereo partly drawn) [Example 98, 6,6-dimethyl-3-((7-(4-methyl-3-(((R)-4-methylmorpholin-2-yl)methyl)-6-(trifluoromethyl)pyridin-2-yl)thieno[3,2-b]pyridin-2-yl)methyl)-3-azabicyclo[3.1.0]hexane-2,4-dione dihydrochloride]", "values": [
      {"measurement": "pIC50", "value": "> 6.30"}
    ]},
    {"smiles": "CC1(C)C2C(=O)N(Cc3cc4nccc(-c5cc(C(F)(F)F)cnc5C[C@@H]5CNCCO5)c4s3)C(=O)C21", "note": "(stereo partly drawn) [Example 99, 6,6-dimethyl-3-((7-(2-(((R)-morpholin-2-yl)methyl)-5-(trifluoromethyl)pyridin-3-yl)thieno[3,2-b]pyridin-2-yl)methyl)-3-azabicyclo[3.1.0]hexane-2,4-dione 2,2,2-trifluoroacetate]", "values": [
      {"measurement": "pIC50", "value": "> 6.30"}
    ]},
    {"smiles": "Cc1ccnc(-c2ccnc3cc(CN4C(=O)C5C(C4=O)C5(C)C)sc23)c1C(O)[C@@H]1CNCCO1", "note": "(stereo partly drawn) [Example 101, 3-((7-(3-(hydroxy((S)-morpholin-2-yl)methyl)-4-methylpyridin-2-yl)thieno[3,2-b]pyridin-2-yl)methyl)-6,6-dimethyl-3-azabicyclo[3.1.0]hexane-2,4-dione 2,2,2-trifluoroacetate]", "values": [
      {"measurement": "inhibition at 1 µM", "value": "< 20", "unit": "%"}
    ]},
    {"smiles": "Cc1nc(C(F)(F)F)cc(-c2ccnc3cc(CN4C(=O)C5C(C4=O)C5(C)C)sc23)c1CN1CCNCC1", "note": "(stereo not drawn) [Example 102, 6,6-dimethyl-3-((7-(2-methyl-3-(piperazin-1-ylmethyl)-6-(trifluoromethyl)pyridin-4-yl)thieno[3,2-b]pyridin-2-yl)methyl)-3-azabicyclo[3.1.0]hexane-2,4-dione 2,2,2-trifluoroacetate]", "values": [
      {"measurement": "pIC50", "value": "5.00 to 6.00"}
    ]},
    {"smiles": "Cc1nc(C(F)(F)F)cc(-c2ccnc3cc(CN4C(=O)C5C(C4=O)C5(C)C)sc23)c1CN1CC(F)(F)C1", "note": "(stereo not drawn) [Example 103, 3-((7-(3-((3,3-difluoroazetidin-1-yl)methyl)-2-methyl-6-(trifluoromethyl)pyridin-4-yl)thieno[3,2-b]pyridin-2-yl)methyl)-6,6-dimethyl-3-azabicyclo[3.1.0]hexane-2,4-dione 2,2,2-trifluoroacetate]", "values": [
      {"measurement": "pIC50", "value": "5.00 to 6.00"}
    ]}
  ]
}
